Tests used:
Experiment in all cases: Ba/F3 drug screening, Cell Titer Glo, IC50 Mut/WT
Format in all cases: cell-based
[1] = target: T1, EGFR L718V (Homo sapiens, UniProt P00533, L718V); settings: Ba/F3 cells, EGFR L718V (PACC), Mut/WT
T1 construct: expressed in transfected cells; host or cells: Ba/F3
Description: (§1) Data represent the ratio of the IC50 value for a given TKI for cells with a PACC EGFR mutation to the IC50 value for cells with wildtype EGFR.
(§2) Ba/F3 cell generation, drug screening, and IC50 approximations. Ba/F3 cells were obtained as a gift from Dr. Gordon Mills (MD Anderson Cancer Center), and maintained in RPMI (Sigma) containing 10% FBS, 1% penicillin/streptomycin, and 10 ng/ml recombinant mIL-3 (R&D Biosystems). To establish stable Ba/F3 cell lines, Ba/F3 cells were transduced with retroviruses containing mutant EGFR plasmids for 12-24 hours.
(§3) After 48-72 hours of transduction, 2 μg/ml puromycin (Invitrogen) was added to Ba/F3 cell lines in complete RPMI. To select for EGFR positive cell lines, cells were stained with PE-EGFR (Biolegend) and sorted by FACS. After sorting, EGFR positive cells were maintained in RPMI containing 10% FBS, 1% penicillin/streptomycin, and 1 ng/ml EGF to support cell viability. Drug screening was performed as previously described^41,42. Shortly, cells were plated in 384-well plates (Greiner Bio-One) at 2000-3000 cells per well in technical triplicate. Seven different concentrations of TKIs or DMSO vehicle were added to reach a final volume of 40 μL per well. After 72 hours, 11 μL of Cell Titer Glo (Promega) was added to each well. Plates were incubated for a minimum of 10 minutes, and bioluminescence was determined using a FLUOstar OPTIMA plate reader (BMG LABTECH). Raw bioluminescence values were normalized to DMSO control treated cells, and values were plotted in GraphPad Prism. […] Drug screens were performed in technical triplicate on each plate and either duplicate or triplicate biological replicates.

[2] = target: T2, EGFR A767insASV (Homo sapiens, UniProt P00533, DUP767-769); settings: Ex20, 72 hours
T2 construct: expressed in transfected cells; host or cells: Ba/F3 cells, retroviral pBabe-Puro vector

[3] = target: T3, EGFR G719A T790M (Homo sapiens, UniProt P00533, G719A/T790M); settings: T790M-like-3S, 72 hours
T3 construct: expressed in transfected cells; host or cells: Ba/F3

[4] = target: T4, EGFR Ex19del (Homo sapiens, UniProt P00533, DEL746-750); settings: Classical-Like, 72 hours
T4 construct: expressed in transfected cells; host or cells: Ba/F3 cells, retroviral pBabe-Puro vector

[5] = target: T5, EGFR L858R (Homo sapiens, UniProt P00533, L858R); settings: Classical-Like, 72 hours
T5 construct: expressed in transfected cells; host or cells: Ba/F3 cells, retroviral pBabe-Puro vector
Description: (§4) Data represent the ratio of the IC50 value for a given TKI for cells with a classical-like EGFR mutation to the IC50 value for cells with wildtype EGFR.
as §2
(§5) After 48-72 hours of transduction, 2 μg/ml puromycin (Invitrogen) was added to Ba/F3 cell lines in complete RPMI. To select for EGFR positive cell lines, cells were stained with PE-EGFR (Biolegend) and sorted by FACS. After sorting, EGFR positive cells were maintained in RPMI containing 10% FBS, 1% penicillin/streptomycin, and 1 ng/ml EGF to support cell viability. […] Shortly, cells were plated in 384-well plates (Greiner Bio-One) at 2000-3000 cells per well in technical triplicate. Seven different concentrations of TKIs or DMSO vehicle were added to reach a final volume of 40 μL per well. After 72 hours, 11 μL of Cell Titer Glo (Promega) was added to each well. Plates were incubated for a minimum of 10 minutes, and bioluminescence was determined using a FLUOstar OPTIMA plate reader (BMG LABTECH). Raw bioluminescence values were normalized to DMSO control treated cells, and values were plotted in GraphPad Prism. […] Drug screens were performed in technical triplicate on each plate and either duplicate or triplicate biological replicates.

[6] = target: T6, EGFR L858R L718Q (Homo sapiens, UniProt P00533, L718Q/L858R); settings: Ba/F3 cells, EGFR L858R L718Q (PACC), Mut/WT
T6 construct: host or cells: Ba/F3
Description: as §1, §2, §3

[7] = target: T7, EGFR E709_T710del insD (Homo sapiens, UniProt P00533, DEL709-709/T710D); settings: Ba/F3 cells, EGFR E709_T710del insD (PACC), Mut/WT
T7 construct: expressed in transfected cells; host or cells: Ba/F3
Description: as §1, §2, §3

[8] = target: T8, EGFR G724S (Homo sapiens, UniProt P00533, G724S); settings: Ba/F3 cells, EGFR G724S (PACC), Mut/WT
T8 construct: expressed in transfected cells; host or cells: Ba/F3
Description: as §1, §2, §3

[9] = target: T9, EGFR E709A G719S (Homo sapiens, UniProt P00533, E709A/G719S); settings: Ba/F3 cells, EGFR E709A G719S (PACC), Mut/WT
T9 construct: expressed in transfected cells; host or cells: Ba/F3
Description: as §1, §2, §3

[10] = target: T10, EGFR L858R/C797S (Homo sapiens, UniProt P00533, C797S/L858R); settings: Ba/F3 cells, EGFR L858R/C797S (PACC), Mut/WT
T10 construct: expressed in transfected cells; host or cells: Ba/F3
Description: as §1, §2, §3

[11] = target: T11, EGFR S768dupSVD V769M (Homo sapiens, UniProt P00533, INS768MDS/V769M); settings: Ex20, 72 hours
T11 construct: expressed in transfected cells; host or cells: Ba/F3 cells, retroviral pBabe-Puro vector (vector made by GeneScript from EGFR S768dupSVD, c.2305G > A)
Description: (§6) Data represent the ratio of the IC50 value for a given TKI for cells with an ex20ins EGFR mutation to the IC50 value for cells with wildtype EGFR.
as §2
(§7) After 48-72 hours of transduction, 2 μg/ml puromycin (Invitrogen) was added to Ba/F3 cell lines in complete RPMI. To select for EGFR positive cell lines, cells were stained with PE-EGFR (Biolegend) and sorted by FACS. After sorting, EGFR positive cells were maintained in RPMI containing 10% FBS, 1% penicillin/streptomycin, and 1 ng/ml EGF to support cell viability. Drug screening was performed as previously described^41,42. Shortly, cells were plated in 384-well plates (Greiner Bio-One) at 2000-3000 cells per well in technical triplicate. Seven different concentrations of TKIs or DMSO vehicle were added to reach a final volume of 40 μL per well. After 72 hours, 11 μL of Cell Titer Glo (Promega) was added to each well. Plates were incubated for a minimum of 10 minutes, and bioluminescence was determined using a FLUOstar OPTIMA plate reader (BMG LABTECH). Raw bioluminescence values were normalized to DMSO control treated cells, and values were plotted in GraphPad Prism. […] Drug screens were performed in technical triplicate on each plate and either duplicate or triplicate biological replicates. […] Statistical differences between groups were determined by ANOVA as described in the figure legends.

[12] = target: T12, EGFR H773insNPH (Homo sapiens, UniProt P00533, INS773NPH); settings: Ex20, 72 hours
T12 construct: expressed in transfected cells; host or cells: Ba/F3 cells, retroviral pBabe-Puro vector
Description: as §6, §2, §7

[13] = target: T13, EGFR L833F (Homo sapiens, UniProt P00533, L833F); settings: Classical-Like, 72 hours
T13 construct: expressed in transfected cells; host or cells: Ba/F3 cells, retroviral pBabe-Puro vector
Description: as §4, §2, §5

[14] = target: T14, EGFR L858R S784F (Homo sapiens, UniProt P00533, L858R/S784F); settings: Classical-Like, 72 hours
T14 construct: expressed in transfected cells; host or cells: Ba/F3 cells, retroviral pBabe-Puro vector (vector made by GeneScript from EGFR L858R)

[15] = target: T15, EGFR G719S T790M (Homo sapiens, UniProt P00533, G719S/T790M); settings: T790M-like-3S, 72 hours
T15 construct: expressed in transfected cells; host or cells: Ba/F3

[16] = target: T16, EGFR V774M (Homo sapiens, UniProt P00533, V774M); settings: Ba/F3 cells, EGFR V774M (PACC), Mut/WT
T16 construct: host or cells: Ba/F3
Description: as §1, §2, §3

[17] = target: T17, EGFR Ex19del G724S (Homo sapiens, UniProt P00533, DEL746-750/G724S); settings: Ba/F3 cells, EGFR Ex19del G724S (PACC), Mut/WT
T17 construct: expressed in transfected cells; host or cells: Ba/F3
Description: as §1, §2, §3

[18] = target: T18, EGFR L858R/V834L (Homo sapiens, UniProt P00533, L858R/V834L); settings: Classical-Like, 72 hours
T18 construct: expressed in transfected cells; host or cells: Ba/F3 cells, retroviral pBabe-Puro vector
Description: as §4, §2, §5

[19] = target: T19, EGFR Ex19del T854I (Homo sapiens, UniProt P00533, DEL746-750/T854I); settings: Ba/F3 cells, EGFR Ex19del T854I (PACC), Mut/WT
T19 construct: expressed in transfected cells; host or cells: Ba/F3 (retroviral transduction, pBabe-Puro based vectors)

[20] = target: T20, EGFR S768I/T790M (Homo sapiens, UniProt P00533, S768I/T790M); settings: T790M-like-3S, 72 hours
T20 construct: expressed in transfected cells; host or cells: Ba/F3

[21] = target: T21, EGFR G719A/R776C (Homo sapiens, UniProt P00533, G719A/R776C); settings: Ba/F3 cells, EGFR G719A/R776C (PACC), Mut/WT
T21 construct: expressed in transfected cells; host or cells: Ba/F3
Description: as §1, §2, §3

[22] = target: T22, EGFR E709A (Homo sapiens, UniProt P00533, E709A); settings: Ba/F3 cells, EGFR E709A (PACC), Mut/WT
T22 construct: expressed in transfected cells; host or cells: Ba/F3

[23] = target: T23, EGFR L858R/T790M (Homo sapiens, UniProt P00533, L858R/T790M); settings: T790M-like-3S, 72 hours
T23 construct: expressed in transfected cells; host or cells: Ba/F3
Description: Data represent the ratio of the IC50 value for a given TKI for cells with a T790M-like-3S EGFR mutation to the IC50 value for cells with wildtype EGFR.
as §2, §3

[24] = target: T24, EGFR G724S T790M (Homo sapiens, UniProt P00533, G724S/T790M); settings: T790M-like-3R, 72 hours
T24 construct: expressed in transfected cells; host or cells: Ba/F3

[25] = target: T25, EGFR Ex19del/T790M/G724S (Homo sapiens, UniProt P00533, DEL746-750/G724S/T790M); settings: T790M-like-3S, 72 hours
T25 construct: expressed in transfected cells; host or cells: Ba/F3

SMILES | ratio of the IC50 value for cells with a PACC EGFR mutation to the IC50 value for cells with wildtype EGFR [1] | ratio of IC50 for cells with mutant EGFR to IC50 for cells with wildtype EGFR (Mut/WT) [2] | ratio of IC50 for cells with mutant EGFR to IC50 for cells with wildtype EGFR (Mut/WT) [3] | ratio of IC50 for cells with mutant EGFR to IC50 for cells with wildtype EGFR (Mut/WT) [4] | ratio of IC50 for cells with mutant EGFR to IC50 for cells with wildtype EGFR (Mut/WT) [5] | ratio of the IC50 value for cells with a PACC EGFR mutation to the IC50 value for cells with wildtype EGFR [6] | ratio of the IC50 value for cells with a PACC EGFR mutation to the IC50 value for cells with wildtype EGFR [7] | ratio of the IC50 value for cells with a PACC EGFR mutation to the IC50 value for cells with wildtype EGFR [8] | ratio of the IC50 value for cells with a PACC EGFR mutation to the IC50 value for cells with wildtype EGFR [9] | ratio of the IC50 value for cells with a PACC EGFR mutation to the IC50 value for cells with wildtype EGFR [10] | ratio of IC50 for cells with mutant EGFR to IC50 for cells with wildtype EGFR (Mut/WT) [11] | ratio of IC50 for cells with mutant EGFR to IC50 for cells with wildtype EGFR (Mut/WT) [12] | ratio of IC50 for cells with mutant EGFR to IC50 for cells with wildtype EGFR (Mut/WT) [13] | ratio of IC50 for cells with mutant EGFR to IC50 for cells with wildtype EGFR (Mut/WT) [14] | ratio of IC50 for cells with mutant EGFR to IC50 for cells with wildtype EGFR (Mut/WT) [15] | ratio of the IC50 value for cells with a PACC EGFR mutation to the IC50 value for cells with wildtype EGFR [16] | ratio of the IC50 value for cells with a PACC EGFR mutation to the IC50 value for cells with wildtype EGFR [17] | ratio of IC50 for cells with mutant EGFR to IC50 for cells with wildtype EGFR (Mut/WT) [18] | ratio of the IC50 value for cells with a PACC EGFR mutation to the IC50 value for cells with wildtype EGFR [19] | ratio of IC50 for cells with mutant EGFR to IC50 for cells with wildtype EGFR (Mut/WT) [20] | other results
C=CC(=O)Nc1cc(Nc2nccc(-c3c[nH]c4ccccc34)n2)c(OC)cc1N(C)CCN(C)C [AZ5104] | 2.622 | 4.661 | 0.1667 | 0.03035 | 0.1965 | 1.635 | 0.03063 | 36.15 | 0.797 | 119.2 | 0.3864 | 3.997 | 0.7284 | 0.0429 | 0.1839 | 0.5635 | 3.178 | 0.4038 | 1.699 | 1.619 | ratio of the IC50 value for cells with a PACC EGFR mutation to the IC50 value for cells with wildtype EGFR [21]: 0.2136; ratio of the IC50 value for cells with a PACC EGFR mutation to the IC50 value for cells with wildtype EGFR [22]: 0.219; ratio of IC50 for cells with mutant EGFR to IC50 for cells with wildtype EGFR (Mut/WT) [23]: 0.1777; ratio of IC50 for cells with mutant EGFR to IC50 for cells with wildtype EGFR (Mut/WT) [24]: 0.428; ratio of IC50 for cells with mutant EGFR to IC50 for cells with wildtype EGFR (Mut/WT) [25]: 1.673
C=CC(=O)Nc1cc(Nc2ncc(C(=O)OC(C)C)c(-c3cn(C)c4ccccc34)n2)c(OC)cc1N(C)CCN(C)C [TAK-788 (mobocertinib), mobocertinib] | 39.29 | 1.553 | 0.4864 | 0.02859 | 0.0472 | 2.996 | 0.0198 | 108.6 | 1.298 | 57.42 | 0.5446 | 0.2952 | 1.233 | 0.001484 | 1.302 | 1.453 | 3.682 | 0.006056 | 4.794 | 10.82 | ratio of the IC50 value for cells with a PACC EGFR mutation to the IC50 value for cells with wildtype EGFR [21]: 0.8144; ratio of the IC50 value for cells with a PACC EGFR mutation to the IC50 value for cells with wildtype EGFR [22]: 1.583; ratio of IC50 for cells with mutant EGFR to IC50 for cells with wildtype EGFR (Mut/WT) [23]: 0.7565; ratio of IC50 for cells with mutant EGFR to IC50 for cells with wildtype EGFR (Mut/WT) [24]: 48.31; ratio of IC50 for cells with mutant EGFR to IC50 for cells with wildtype EGFR (Mut/WT) [25]: 3.12

Source: patent publication US20240384350A1, “METHODS OF TREATING CANCER WITH KINASE INHIBITORS” (BOARD OF REGENTS, THE UNIVERSITY OF TEXAS SYSTEM, priority 2021, published 2024)
